According to article doi:10.1101/2024.09.04.611205v1 (biorxiv, 2024):

What was measured:
cyclooxygenase 2 (COX-2) = molecular target: T1, cyclooxygenase 2 (COX-2) (Homo sapiens, UniProt P35354); experiment: fluorimetric ADHP/resorufin assay; type: biochemical; conditions: read-out: % inhibition at 20 μM
T1 sequence (P35354 18-604): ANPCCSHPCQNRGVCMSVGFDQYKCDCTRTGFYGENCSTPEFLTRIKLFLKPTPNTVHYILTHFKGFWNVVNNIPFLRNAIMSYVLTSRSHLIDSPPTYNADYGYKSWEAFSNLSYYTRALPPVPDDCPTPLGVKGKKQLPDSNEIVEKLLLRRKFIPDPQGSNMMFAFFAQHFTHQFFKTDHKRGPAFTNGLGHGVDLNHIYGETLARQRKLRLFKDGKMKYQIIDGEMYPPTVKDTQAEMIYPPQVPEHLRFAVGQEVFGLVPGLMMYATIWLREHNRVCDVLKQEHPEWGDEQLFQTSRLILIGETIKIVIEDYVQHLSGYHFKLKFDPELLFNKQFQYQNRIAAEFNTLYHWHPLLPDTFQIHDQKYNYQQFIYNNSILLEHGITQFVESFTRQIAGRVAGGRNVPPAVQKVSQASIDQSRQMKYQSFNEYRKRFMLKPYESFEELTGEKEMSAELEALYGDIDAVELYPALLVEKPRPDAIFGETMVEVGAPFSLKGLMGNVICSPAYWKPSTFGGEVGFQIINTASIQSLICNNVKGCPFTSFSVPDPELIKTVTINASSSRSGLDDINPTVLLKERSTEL

cyclooxygenase 1 (COX-1) = cyclooxygenase 1 (COX-1) (Homo sapiens, UniProt P23219); experiment: fluorimetric ADHP/resorufin assay; type: biochemical; conditions: read-out: % inhibition at 20 μM
Chain of cyclooxygenase 1 (COX-1) (P23219 24-599): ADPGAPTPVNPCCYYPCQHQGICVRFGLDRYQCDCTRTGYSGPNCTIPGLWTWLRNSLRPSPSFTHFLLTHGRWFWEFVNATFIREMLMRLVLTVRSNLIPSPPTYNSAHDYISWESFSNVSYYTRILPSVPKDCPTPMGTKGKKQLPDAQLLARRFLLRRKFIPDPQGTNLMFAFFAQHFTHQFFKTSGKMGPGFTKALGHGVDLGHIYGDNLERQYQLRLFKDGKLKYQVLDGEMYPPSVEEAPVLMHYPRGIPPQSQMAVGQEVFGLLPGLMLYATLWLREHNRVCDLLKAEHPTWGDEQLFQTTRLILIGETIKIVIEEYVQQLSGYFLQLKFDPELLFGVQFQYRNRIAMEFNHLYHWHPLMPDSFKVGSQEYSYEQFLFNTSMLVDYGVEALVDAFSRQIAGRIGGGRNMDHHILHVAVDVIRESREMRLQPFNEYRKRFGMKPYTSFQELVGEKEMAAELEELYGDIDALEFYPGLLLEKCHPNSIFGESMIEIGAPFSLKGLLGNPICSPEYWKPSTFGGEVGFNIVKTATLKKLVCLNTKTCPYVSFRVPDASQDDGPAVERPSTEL

Question: How did the inhibition at 20 µM (cyclooxygenase 2 (COX-2)) turn out when Cc1cccc(-c2n[nH]cc2-c2ccc3ncccc3n2)n1 [RepSox] was run?
Answer: 13%

Question: What about the inhibition at 20 µM (cyclooxygenase 1 (COX-1)) of the same molecule?
Answer: 61%
